This is an account of results in patent publication US9968620B2, “Methods of treating lymphoma using thienotriazolodiazepine compounds” (ONCOETHIX GmbH, priority 2014, dated 2018).

Structures can show the parent of a compound that is named as a salt.

The subject of one test is HDAC. The settings on record: cited from earlier work.
For test [1], the system named is lymphoma cell lines (2-5 cell lines). Nature of the test: Synergy of compound (1-1) with other agents, MTT, Chou-Talalay combination index. The class given is cell-based. The settings on record: 72 h; for combination effect with compound (1-1): Chou-Talalay; for Chou-Talalay combination index (CI), median / Chou-Talalay combination index (CI), range: in combination with compound (1-1).

The next test deals with FKBP12 (Homo sapiens, UniProt P62942). The settings on record: cited from earlier work.
Sequence of FKBP12 (P62942 whole entry, species assumed): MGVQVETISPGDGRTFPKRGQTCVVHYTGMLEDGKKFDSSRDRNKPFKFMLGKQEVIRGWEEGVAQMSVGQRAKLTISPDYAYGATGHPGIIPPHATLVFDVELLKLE
Another test addresses JAK-1 (Homo sapiens, UniProt P23458). The following applies: cited from earlier work.
Another test addresses JAK-2 (Homo sapiens, UniProt O60674). The following applies: cited from earlier work.
For the next test, the target named is JAK-3 (Homo sapiens, UniProt P52333). The settings on record: cited from earlier work.
A further test has as its target SYK (Homo sapiens, UniProt P43405). The settings on record: cited from earlier work.
For another test, the target named is EGFR kinase (Homo sapiens, UniProt P00533). The following applies: cited from earlier work.
The target of the next test is IR kinase (Homo sapiens, UniProt P06213). The settings on record: cited from earlier work.
In a further test the target is Hck (Homo sapiens, UniProt P08631). The following applies: cited from earlier work.
Sequence of Hck (P08631 whole entry, species assumed): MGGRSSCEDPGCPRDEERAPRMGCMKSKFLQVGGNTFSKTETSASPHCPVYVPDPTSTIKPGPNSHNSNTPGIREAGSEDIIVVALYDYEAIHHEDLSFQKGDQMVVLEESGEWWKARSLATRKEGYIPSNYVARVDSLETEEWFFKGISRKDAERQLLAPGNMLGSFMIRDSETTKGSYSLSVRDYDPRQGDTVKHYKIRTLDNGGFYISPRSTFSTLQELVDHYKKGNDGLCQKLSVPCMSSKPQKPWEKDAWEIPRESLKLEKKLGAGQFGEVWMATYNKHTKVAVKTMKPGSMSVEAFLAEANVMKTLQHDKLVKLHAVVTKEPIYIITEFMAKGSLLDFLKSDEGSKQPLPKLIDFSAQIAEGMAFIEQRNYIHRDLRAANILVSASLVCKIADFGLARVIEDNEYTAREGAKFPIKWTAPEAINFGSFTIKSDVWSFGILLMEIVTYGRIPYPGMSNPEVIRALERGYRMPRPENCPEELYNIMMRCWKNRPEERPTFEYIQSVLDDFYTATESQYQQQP
Test [2] has as its system pAktS473, pGSK3βS9, pS6, pMAPK, pAktT308. The following applies: cited from earlier work.
The subject of another test is PI3K/mTOR. The following applies: cited from earlier work.
In a further test the test system is PDGFR. The following applies: cited from earlier work.
The test system of test [3] is Akt phosphorylation on T308. The following applies: cited from earlier work.
The subject of test [4] is Akt phosphorylation on S473. The settings on record: cited from earlier work.
For a further test, the target named is PI3Kβ (p110β) (Homo sapiens, UniProt P42338). The settings on record: cited from earlier work.
Sequence of PI3Kβ (p110β) (P42338 whole entry, species assumed): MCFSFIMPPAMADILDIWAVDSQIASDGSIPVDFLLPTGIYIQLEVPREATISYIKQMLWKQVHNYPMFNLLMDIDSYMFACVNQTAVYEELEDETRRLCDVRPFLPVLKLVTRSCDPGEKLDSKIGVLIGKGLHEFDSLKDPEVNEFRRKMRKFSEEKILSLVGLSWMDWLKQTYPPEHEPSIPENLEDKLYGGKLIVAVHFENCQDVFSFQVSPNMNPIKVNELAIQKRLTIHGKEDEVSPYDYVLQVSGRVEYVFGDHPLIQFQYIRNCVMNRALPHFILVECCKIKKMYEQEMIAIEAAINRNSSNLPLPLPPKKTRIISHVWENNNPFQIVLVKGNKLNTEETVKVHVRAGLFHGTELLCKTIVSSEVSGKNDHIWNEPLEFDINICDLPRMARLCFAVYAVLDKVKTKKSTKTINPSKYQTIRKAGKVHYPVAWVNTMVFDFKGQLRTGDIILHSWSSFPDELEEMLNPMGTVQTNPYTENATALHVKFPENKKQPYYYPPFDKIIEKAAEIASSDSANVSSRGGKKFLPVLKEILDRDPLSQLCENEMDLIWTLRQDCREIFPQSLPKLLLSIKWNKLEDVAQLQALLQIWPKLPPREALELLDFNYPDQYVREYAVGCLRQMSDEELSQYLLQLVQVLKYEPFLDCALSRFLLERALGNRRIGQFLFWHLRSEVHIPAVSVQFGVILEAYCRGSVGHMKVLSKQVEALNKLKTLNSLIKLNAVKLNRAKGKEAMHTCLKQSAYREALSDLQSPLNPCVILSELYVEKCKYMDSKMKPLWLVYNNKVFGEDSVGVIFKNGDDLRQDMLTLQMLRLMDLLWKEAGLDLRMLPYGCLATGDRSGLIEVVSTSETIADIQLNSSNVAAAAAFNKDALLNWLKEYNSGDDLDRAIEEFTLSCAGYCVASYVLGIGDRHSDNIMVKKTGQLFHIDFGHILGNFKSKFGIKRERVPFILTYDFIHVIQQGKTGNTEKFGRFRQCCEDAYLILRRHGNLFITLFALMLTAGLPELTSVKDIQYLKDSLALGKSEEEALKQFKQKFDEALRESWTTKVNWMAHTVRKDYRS
Sequence of PI3Kβ (p110β) (P27986 whole entry partner, species assumed): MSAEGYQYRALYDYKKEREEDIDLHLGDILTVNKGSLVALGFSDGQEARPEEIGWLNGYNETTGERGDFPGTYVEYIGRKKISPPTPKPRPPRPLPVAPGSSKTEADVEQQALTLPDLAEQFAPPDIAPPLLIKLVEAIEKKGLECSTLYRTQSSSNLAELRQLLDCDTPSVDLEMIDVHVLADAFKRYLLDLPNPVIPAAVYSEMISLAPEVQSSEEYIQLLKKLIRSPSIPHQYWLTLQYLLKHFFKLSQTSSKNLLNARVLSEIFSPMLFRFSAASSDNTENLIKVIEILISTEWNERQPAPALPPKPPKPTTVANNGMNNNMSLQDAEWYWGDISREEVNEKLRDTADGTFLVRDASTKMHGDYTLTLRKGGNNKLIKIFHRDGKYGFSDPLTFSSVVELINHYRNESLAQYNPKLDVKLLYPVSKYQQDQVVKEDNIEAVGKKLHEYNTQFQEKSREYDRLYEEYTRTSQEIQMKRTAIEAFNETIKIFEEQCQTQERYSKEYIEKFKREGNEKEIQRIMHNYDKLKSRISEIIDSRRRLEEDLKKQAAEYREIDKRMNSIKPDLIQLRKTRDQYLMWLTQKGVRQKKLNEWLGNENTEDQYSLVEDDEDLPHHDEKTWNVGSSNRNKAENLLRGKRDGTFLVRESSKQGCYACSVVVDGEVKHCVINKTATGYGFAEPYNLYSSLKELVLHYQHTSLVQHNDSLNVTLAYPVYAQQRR
The target in another test is PI3Kγ (p110γ) (Homo sapiens, UniProt P48736). The settings on record: cited from earlier work.
Sequence of PI3Kγ (p110γ) (P48736 whole entry, species assumed): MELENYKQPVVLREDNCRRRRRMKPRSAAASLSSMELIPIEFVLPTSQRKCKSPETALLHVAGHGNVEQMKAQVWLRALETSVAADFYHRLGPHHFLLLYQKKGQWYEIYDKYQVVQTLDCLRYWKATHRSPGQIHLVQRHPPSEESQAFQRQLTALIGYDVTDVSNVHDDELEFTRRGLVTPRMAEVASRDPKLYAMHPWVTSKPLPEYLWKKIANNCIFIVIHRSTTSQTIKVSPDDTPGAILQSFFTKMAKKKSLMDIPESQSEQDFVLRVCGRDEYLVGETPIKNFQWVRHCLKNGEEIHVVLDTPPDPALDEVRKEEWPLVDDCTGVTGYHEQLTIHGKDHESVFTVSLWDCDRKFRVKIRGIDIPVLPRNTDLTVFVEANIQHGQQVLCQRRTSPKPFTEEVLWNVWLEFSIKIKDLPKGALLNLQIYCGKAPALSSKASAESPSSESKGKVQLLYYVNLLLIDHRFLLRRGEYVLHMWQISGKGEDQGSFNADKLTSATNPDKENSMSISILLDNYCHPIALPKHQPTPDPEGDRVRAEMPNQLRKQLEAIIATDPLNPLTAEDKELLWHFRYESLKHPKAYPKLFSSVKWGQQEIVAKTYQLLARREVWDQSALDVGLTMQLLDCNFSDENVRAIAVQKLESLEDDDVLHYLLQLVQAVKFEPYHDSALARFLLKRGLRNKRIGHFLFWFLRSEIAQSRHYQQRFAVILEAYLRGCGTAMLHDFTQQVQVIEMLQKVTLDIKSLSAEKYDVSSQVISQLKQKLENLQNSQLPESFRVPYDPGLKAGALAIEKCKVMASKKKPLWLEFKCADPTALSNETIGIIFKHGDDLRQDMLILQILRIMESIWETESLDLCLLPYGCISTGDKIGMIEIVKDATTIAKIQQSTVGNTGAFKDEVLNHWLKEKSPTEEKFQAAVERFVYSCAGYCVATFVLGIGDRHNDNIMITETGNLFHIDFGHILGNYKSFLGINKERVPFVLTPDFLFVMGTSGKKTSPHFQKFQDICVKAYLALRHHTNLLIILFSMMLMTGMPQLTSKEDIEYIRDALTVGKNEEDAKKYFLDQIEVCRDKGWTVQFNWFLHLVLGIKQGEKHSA

What is called IC50 is the concentration that inhibits the measured activity by half. As usually defined, the Ki is a dissociation constant, usually derived from enzyme kinetics or from competition with a known ligand.

Sequence of JAK-2 (O60674 whole entry, species assumed): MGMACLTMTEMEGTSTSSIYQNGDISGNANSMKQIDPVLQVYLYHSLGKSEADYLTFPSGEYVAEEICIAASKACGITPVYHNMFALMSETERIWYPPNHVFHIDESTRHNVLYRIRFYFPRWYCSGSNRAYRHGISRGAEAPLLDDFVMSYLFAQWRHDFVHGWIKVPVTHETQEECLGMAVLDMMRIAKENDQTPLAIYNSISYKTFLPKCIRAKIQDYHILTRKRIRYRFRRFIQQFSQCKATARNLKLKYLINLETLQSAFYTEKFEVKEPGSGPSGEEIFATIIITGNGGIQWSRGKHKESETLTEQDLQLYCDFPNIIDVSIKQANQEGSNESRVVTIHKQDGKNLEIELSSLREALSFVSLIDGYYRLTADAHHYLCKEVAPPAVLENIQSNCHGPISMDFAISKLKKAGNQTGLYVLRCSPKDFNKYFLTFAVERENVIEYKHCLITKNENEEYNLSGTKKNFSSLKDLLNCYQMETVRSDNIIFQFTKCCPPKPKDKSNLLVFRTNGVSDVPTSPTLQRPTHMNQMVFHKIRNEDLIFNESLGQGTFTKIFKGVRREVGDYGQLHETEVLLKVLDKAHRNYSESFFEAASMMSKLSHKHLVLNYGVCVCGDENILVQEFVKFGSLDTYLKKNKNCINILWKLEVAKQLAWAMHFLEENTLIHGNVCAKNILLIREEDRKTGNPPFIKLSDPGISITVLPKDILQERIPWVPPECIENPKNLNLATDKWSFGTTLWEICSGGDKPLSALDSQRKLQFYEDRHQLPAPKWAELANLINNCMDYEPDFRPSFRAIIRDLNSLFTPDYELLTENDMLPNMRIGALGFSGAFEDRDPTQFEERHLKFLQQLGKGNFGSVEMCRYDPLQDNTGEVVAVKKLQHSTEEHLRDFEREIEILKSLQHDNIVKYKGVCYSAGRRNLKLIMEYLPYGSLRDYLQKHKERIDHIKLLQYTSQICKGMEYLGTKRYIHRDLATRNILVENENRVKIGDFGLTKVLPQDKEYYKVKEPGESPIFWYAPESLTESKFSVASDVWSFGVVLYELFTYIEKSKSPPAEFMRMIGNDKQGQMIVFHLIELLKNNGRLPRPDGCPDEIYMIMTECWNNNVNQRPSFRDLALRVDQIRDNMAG

Consider `CC(C)[C@H](C(=O)Nc1ccc(C(=O)NO)cc1)c1ccccc1` [AR-42], for which, in the test on HDAC, the IC50 was 30 nM.

As for `CC[C@H](Nc1ncnc2[nH]cnc12)c1nc2cccc(F)c2c(=O)n1-c1ccccc1` [idelalisib], in test [1], the “combination effect with compound (1-1)” value is given as “Synergy”; the “Chou-Talalay combination index (CI), median” value is reported as 0.5; the “Chou-Talalay combination index (CI), range” value is 0.04-2.4.

With `CO[C@H]1C[C@@H]2CC[C@@H](C)[C@@](O)(O2)C(=O)C(=O)N2CCCC[C@H]2C(=O)O[C@H]([C@H](C)C[C@@H]2CC[C@@H](OCCO)[C@H](OC)C2)CC(=O)[C@H](C)/C=C(\C)[C@@H](O)[C@@H](OC)C(=O)[C@H](C)C[C@H](C)/C=C/C=C/C=C/1C` [Everolimus], in [1], the “combination effect with compound (1-1)” value was “Synergy”; the “Chou-Talalay combination index (CI), median” value was found to be 0.1; the “Chou-Talalay combination index (CI), range” value is 0.1-0.2. Besides, the IC50 on FKBP12 was 1.6 to 2.4 nM.

Take `Cn1c(CCCC(=O)O)nc2cc(N(CCCl)CCCl)ccc21` [bendamustine, 4-[5-[Bis(2-chloroethyl)amino]-1-methylbenzimidazol-2-yl]butanoic acid]: the “combination effect with compound (1-1)” value in [1] is “Additive effects”.

Regarding `Cn1c(/C=C/C(=O)NO)ccc1/C=C/C(=O)c1cccc(F)c1` [MC1568], in the test with HDAC, the IC50 was 200 nM.

In the case of `C/C(O)=C(\C#N)C(=O)Nc1cc(Br)ccc1Br`, the IC50 on JAK-1, at JAK-2, on JAK-3, on SYK, on EGFR kinase and at IR kinase was greater than 300000 nM throughout. For the same compound, at Hck, the concentration for half-maximal inhibition (IC50) was greater than 300000 nM.

For `CC1=C(/C=C/C(C)=C/C=C/C(C)=C/C(=O)O)C(C)(C)CCC1` [all-trans retinoic acid], the “combination effect with compound (1-1)” value in [1] is given as “Synergy”.

Turning to `CCCC(CCC)C(=O)O` [Valproic acid sodium salt], the IC50 in the test with HDAC was 400000 nM.

As to `CCCCc1nc2cc(/C=C/C(=O)NO)ccc2n1CCN(CC)CC` [SB939], the IC50 in the test on HDAC was 40 to 140 nM.

Turning to `COc1ccc(COc2cc3oc(=O)c4cc(C(C)O)ccc4c3cc2OC)cc1` (centres unmarked) [Palomid 529], the “effect on phosphorylation of pAktS473, pGSK3βS9, pS6, pMAPK, pAktT308” value in [2] is “both the mTORCl and mTORC2 complexes, reduces phosphorylation of pAktS473, pGSK3βS9, and pS6 but neither pMAPK nor pAktT308. Phase 1”.

On to `O=C(CCCCCCC(=O)Nc1ccccc1)NO` [Vorinostat, suberoylanilide hydroxamic acid], for which, in test [1], the “combination effect with compound (1-1)” value is recorded as “Synergy”; the “Chou-Talalay combination index (CI), median” value is reported as 0.5; the “Chou-Talalay combination index (CI), range” value is reported as 0.3-0.6.

With `Nc1cccc2c1CN(C1CCC(=O)NC1=O)C2=O` (centres unmarked) [lenalidomide], in [1], the “combination effect with compound (1-1)” value is reported as “Synergy” and the “Chou-Talalay combination index (CI), median” value is 0.7.

Turning to `COc1ccc(-c2ccc3ncc4c(c3c2)n(-c2ccc(N3CCNCC3)c(C(F)(F)F)c2)c(=O)n4C)cn1` [NVP-BGT226], in the test with PI3K/mTOR, the half-inhibitory concentration (IC50) was 1 nM.

Take `CN(C)c1ccc(C(=O)NCCCCCCC(=O)NO)cc1` [Compound M344]: the IC50 with HDAC is 100 nM.

As to “rituximab: agent combined with compound (1-1) in the synergy test”, in [1], the “combination effect with compound (1-1)” value is given as “Synergy”; the “Chou-Talalay combination index (CI), median” value was determined as 0.5; the “Chou-Talalay combination index (CI), range” value is given as 0.4-0.5.

`Nc1ncnc2c1c(-c1cnc3[nH]ccc3c1)nn2C1CCCC1` [PP-121, 1-Cyclopentyl-3-(1H-pyrrolo[2,3-b]p-yridin-5-yl)-1H-pyrazolo[3,4-d]pyrimidin-4-amine]: in the test on PDGFR, the IC50 was 2 nM.

For `COc1cccc2c1C(=O)c1c(O)c3c(c(O)c1C2=O)C[C@@](O)(C(=O)CO)C[C@@H]3O[C@H]1C[C@H](N)[C@H](O)[C@H](C)O1` [doxorubicin, (7S,9S)-7-[(2R,4S,5S,6S)-4-amino-5-hydroxy-6-methyloxan-2-yl]oxy-6,9,11-trihydroxy-9-(2-hydroxyacetyl)-4-methoxy-8,10-dihydro-7H-tetracene-5,12-dione], in test [1], the “combination effect with compound (1-1)” value is reported as “Additive effects”; the “Chou-Talalay combination index (CI), median” value was 0.83; the “Chou-Talalay combination index (CI), range” value is 0.7-0.96.

Regarding `O=C(/C=C/c1ccc(CN(CCO)CCc2c[nH]c3ccccc23)cc1)NO` [LAQ824], the IC50 in the test with HDAC was 32 nM.

As for `COc1ccc(-c2cc3c(C)nc(N)nc3n([C@H]3CC[C@H](OCCO)CC3)c2=O)cn1` [PF-04691502], the IC50 in test [3] is 7.5 nM; in test [4], 3.8 nM.

As to `CCN(CC)Cc1ccc2cc(COC(=O)Nc3ccc(C(=O)NO)cc3)ccc2c1` [ITF2357], in the test on HDAC, the IC50 was 7.5 to 16 nM.

Take GSK2126458: the figures for the inhibition constant Ki on PI3Kβ (p110β) and at PI3Kγ (p110γ) were 0.13 nM and 0.024 nM, respectively.

With `C=CC(=O)N1CCC[C@@H](n2nc(-c3ccc(Oc4ccccc4)cc3)c3c(N)ncnc32)C1` [ibrutinib], in test [1], the “combination effect with compound (1-1)” value is “Synergy”. Also, in [1] (in ABC-DLBCL), the “Chou-Talalay combination index (CI), median” value was 0.04 and the “Chou-Talalay combination index (CI), range” value is reported as 0.02-0.1.
